In patent US20150004144A1, “DIFFERENTIATION INTO BROWN ADIPOCYTES” (THE GENERAL HOSPITAL CORPORATION, priority 2011, published 2015):

Experiments:
[1] = test system: hPSC-derived adipocytes; assay: Lipolysis assay (glycerol release); details: PPARG2-programmed, differentiated ADSVCs and MPCs; ADSVCs P=0.01, MPCs P=0.002; n=3
Protocol: Lipolysis assay. […] The culture media was collected for glycerol measurement using the Free Glycerol reagent (Sigma #F6428). Protein concentrations used to normalize glycerol content were measured using the Bradford protein assay (BioRad). Glycerol release was expressed in μg glycerol per mg total protein or the lowest value is set to 1.

[2] = test system: hPSC-derived adipocytes; assay: Cellular OCR and ECAR (extracellular flux analyzer); assay type: cell-based, human; details: all cell types; 5 μM antimycin A after oligomycin and CCCP
Protocol: To further distinguish between white and brown adipocytes at a functional level, the characterization was extended to the mitochondrial function of our cells. […] Compounds were then injected that modulate mitochondrial function sequentially and the effect on OCR and ECAR was measured after the addition of each compound. Oligomycin was first administered to determine ATP turnover and the degree of proton leak. […] After the addition of the electron transport chain decoupler carbonyl cyanide m-chlorophenylhydrazone (CCCP), the maximal respiratory capacity was measured. […] Finally, antimycin was administered to inhibit the flux of electrons through complex III and prevent oxygen consumption by the cytochrome c oxidase in the mitochondria.
Measurement of cellular OCR and ECAR. Cells were plated in gelatin-coated XF24-well cell culture microplates (Seahorse Bioscience) and differentiated into adipocytes. Cells were incubated in prewarmed unbuffered DMEM medium (DMEM containing 2 mM GlutaMax, 1 mM sodium pyruvate, 1.85 g/l NaCl, and 25 mM glucose) for 1 hour. The oxygen consumption was measured by the XF24 Extracellular Flux Analyzer (Seahorse Biosciences). […] OCR and ECAR were determined by plotting the oxygen tension and acidification of the medium in the chamber as a function of time and normalized by protein concentration (pmol/min/mg and mpH/min/mg), respectively.

[3] = test system: pAKT(S473); assay: Western blot of insulin-induced AKT phosphorylation; assay type: cell-based, human; details: programmed white adipocytes, vs basal starved state
Protocol: Finally, it was determined whether the programmed white adipocytes respond to insulin in a manner similar to mature primary white adipocytes. […] Insulin response was examined by assessing protein expression levels of AKT and phosphorylated AKT [pAKT(S473)] (FIG. 4D).
Western blot analysis. Western blot analysis was carried out using following antibodies: total AKT (Cell signaling #9272), phospho-Ser 473 AKT (Cell signaling #9271), Lamin A/C (Fisher/Millipore #3211).

[4] = test system: BJ RiPS MPC derived adipocytes; assay: Glucose uptake assay ([3H]-2-deoxy-D-glucose); assay type: cell-based, human; details: 100 nM insulin 30 min; P=0.05 unprogrammed, P=0.0007 PPARG2-programmed cells
Protocol: Glucose uptake assay. Adipocytes were serum-starved in 0.2% BSA DMEM overnight. Then, cells were incubated in KRH buffer (121 mM NaCl, 4.9 mM KCl, 1.2 mM MgSO4, 0.33 mM CaCl2, 12 mM HEPES, pH7.4) in the absence or presence of 100 nM insulin for 30 min at 37° C., followed by washing three times in KRH buffer. Glucose uptake was measured by incubating cells with 0.5 μCi/ml 2-deoxy-D-[3H] glucose (Perkin-Elmer) for 5 min at 37° C. After cold PBS washing three times, cells were lysed with 1% Triton X-100 solution and subjected to scintillation counting. Non-specific uptake was measured in the presence of 10 μM of cytochalasin B and subtracted from total uptake.

CC(C)NCC(O)c1ccc(O)c(O)c1 (stereo not shown) [isoproterenol]
release of glycerol after isoproterenol [1]: breakdown of triglycerides and release of glycerol

antimycin
OCR after antimycin [2]: dropped to post-oligomycin levels

insulin: insulin (Sigma)
pAKT(S473) after insulin [3]: robustly upregulated pAKT(S473) | glucose uptake after exposure to insulin [4]: significant increase in the glucose uptake
